# Patent US20220288010A1, “METHODS FOR REDUCING REWARDING EFFECTS OF MORPHINE WITHOUT AFFECTING ITS ANALGESIC EFFECTS” (The Board of Trustees of the Leland Stanford Junior …, priority 2019, published 2022)
# Entries after “also recorded” stand apart in the source; their conditions may differ.
# Legend:
# [1] = test system: mice; experiment: morphine conditioned place preference (CPP) paradigm to assess morphine reward; assay type: in vivo
# Description: The ability of a MAGL inhibitor to attenuate the rewarding effect of an opioid can also be assessed in animal models. For example, a morphine conditioning place preference (CPP) paradigm can be used as a preclinical model to measure reward, in which mice are conditioned to associate a particular chamber with the rewarding effects of morphine (see, e.g., Example 1). Reward, e.g., as measured by a preference for the morphine chamber, can be assessed at different phases of morphine conditioning, for example to assess if a MAGL inhibitor decreases or inhibits the establishment of the rewarding effect or of its maintenance or expression.
# Endocannabinoid signaling is primarily regulated by MAGL and FAAH, the two enzymes responsible for catabolizing the endogenous cannabinoids, 2-AG and anandamide. Although some studies have shown that inhibition of these enzymes reduces certain aspects of morphine withdrawal, no studies exist that have examined their role in morphine reward. We utilized the morphine conditioned place preference (CPP) paradigm, to assess morphine reward, in which mice are conditioned to associate a particular chamber with the rewarding effects of morphine (FIG. 1A). […] To test the effect of systemic blockade of MAGL with the pharmacological inhibitor JZL-184 on morphine reward, on Day 1 mice underwent a baseline test, on Day 2-5 mice were conditioned to morphine wherein they received an intraperitoneal (i.p.) injection of JLZ-184 (10 mg/kg, i.p.), two hours prior to each morphine conditioning session (FIG. 1B). On day 6, mice were tested for morphine preference. […] Next, to test if this effect of MAGL inhibition was selective for the conditioning phase or potentially could also alter the expression of the morphine preference, mice were injected with JLZ-184 two hours prior to the Day 6 morphine preference test, in the absence of morphine (FIG. 1D).
# In order to expand our findings, we decided to test the (R)-3t compound, a reversible MAGL inhibitor, in morphine conditioned place preference. As with JZL-184, (R)-3t (20 mg/kg) was given before each morphine conditioning session (FIG. 3A).
# To test the effect of inhibiting the enzyme FAAH on the rewarding effects of morphine, we tested the effect of the FAAH inhibitor PF-3845 in morphine conditioned place preference. […] We additionally found no effect of PF-3845 (10 mg/kg, i.p.) on morphine-induced analgesia and morphine tolerance using the tail-flick test (FIGS. 4E-G).
# Inhibition of the MAGL enzyme with JZL-184 results in lower metabolization of the endogenous cannabinoid 2-AG. This implies higher availability of this endogenous cannabinoid receptor 1 (CB1) ligand to activate CB1 receptors. Next, we tested the effect of activating the CB1 receptor with the exogenous CB1 ligand, THC, on morphine conditioned place preference. Mice were systemically administered THC prior to each morphine conditioning session (FIG. 5A).
# [2] = test system: mice; experiment: tail flick test, morphine analgesia, cumulative dose response of morphine; assay type: in vivo
# [3] = test system: mice; experiment: tail flick test, tolerance to morphine's analgesic effects; assay type: in vivo
# Method: Chronic morphine treatment can result in tolerance to its analgesic effects; therefore, to test if morphine tolerance was affected by MAGL inhibition, for four consecutive days mice received a morning and afternoon injection of JZL-184 (10 mg/kg, i.p.), two hours prior to an injection of morphine (10 mg/kg), and antinociception was assessed every other day in the tail flick test.
# [4] = test system: mice; experiment: cocaine conditioned place preference (CPP); assay type: in vivo; settings: JZL-184 prior to each cocaine conditioning session
# Description: Although drugs of abuse exert their rewarding effects through similar pathways and brain structures, they use different mechanisms. […] Mice were pretreated with JZL-184 prior to each cocaine conditioning session (FIG. 6A).
# [5] = test system: nucleus accumbens (NAc) activity; experiment: in vivo fiber photometry (GCaMP6s) recording during morphine CPP; settings: JZL-184 treated mice
# Description: FIGS. 7A-7D. MAGL inhibition reduces nucleus accumbens (NAc) activity during morphine CPP. FIG. 7A: Experimental timeline for fiber photometry recording during […]. FIG. 7B: Brain schematic with an optic fiber implanted into the NAc expressing the calcium indicator GCaMP6s and a representative image of the GCaMP6s expressing in the NAc (aca=anterior commissure, AcbC=nucleus accumbens core, AcbSh=nucleus accumbens shell). FIG. 7C: Graph of the quantification of the mean signal (representative of NAc activity) around zone entry into the morphine- or saline-paired chambers of vehicle- or JZL-184-pretreated animals. (dF/F (%) data for the average signal +/− 5s around zone entries; vehicle-treated animals, morphine vs saline chamber *p<0.05, n=6; JZL-184 treated animals, morphine vs saline p=0.054, n=9). FIG. 7D: Graph of the quantification of the onset of approach to morphine- or saline-paired chambers (dF/F (%) data for the average signal +/− 5s of the onset of approaching a chamber; vehicle-treated animals, morphine vs saline chamber *p<0.05, n=6; JZL-184 treated animals, morphine vs saline p=0.39, n=9).
# The rewarding effects of morphine have been linked to neural activity of the brain region the nucleus accumbens. […]
# [6] = test system: monoacylglycerol lipase (MAGL); settings: cited from earlier work
# [7] = pretreatment with PF-3845 10 mg/kg i.p.
smiles,measurement,setting,value
"Cc1ncccc1-c1cc(F)cc(N2C[C@H](N3CCN(c4ncccn4)CC3)CC2=O)c1 [(R)-3t, (4R)-1-[3-fluoro-5-(2-methylpyridin-3-yl)phenyl]-4-[4-(pyrimidin-2-yl)piperazin-1-yl]pyrrolidin-2-one]",acquisition of morphine CPP (morphine reward),[1]; (R)-3t 20 mg/kg before each morphine conditioning session,resulted in a lack of morphine reward; also recorded: abolishes the rewarding effects of morphine; also recorded: abolishes acquisition of CPP
"CCCCCc1cc(O)c2c(c1)OC(C)(C)[C@@H]1CCC(C)=C[C@@H]21 [THC, Δ^9-Tetrahydrocannabinol]",acquisition of morphine CPP (morphine reward),[1]; THC systemically prior to each morphine conditioning session,had no effect on morphine reward; also recorded: does not alter the acquisition of morphine CPP
O=C(Nc1cccnc1)N1CCC(Cc2cccc(Oc3ccc(C(F)(F)F)cn3)c2)CC1 [PF-3845],acquisition of morphine CPP,"[1]; PF-3845 10 mg/kg i.p. before each conditioning session, 10 mg/kg",had no effect on acquisition of morphine conditioned place preference; also recorded: does not alter acquisition of morphine CPP
same,expression of morphine CPP,"[1]; PF-3845 10 mg/kg i.p. before the morphine CPP expression test, 10 mg/kg",had no effect; also recorded: does not alter
same,morphine-induced analgesia,[2]; [7],no effect; also recorded: are not affected
same,morphine tolerance,[3]; [7],no effect; also recorded: are not affected
"O=C(Oc1ccc([N+](=O)[O-])cc1)N1CCC(C(O)(c2ccc3c(c2)OCO3)c2ccc3c(c2)OCO3)CC1 [JZL-184, (4-nitrophenyl) 4-[bis(1,3-benzodioxol-5-yl)-hydroxymethyl]piperidine-1-carboxylate]",acquisition of morphine CPP (morphine reward),"[1]; JZL-184 10 mg/kg i.p. two hours prior to each morphine conditioning session (Day 2-5), preference test Day 6, 10 mg/kg",abolishes morphine reward; also recorded: abolishes the rewarding effects of morphine; also recorded: abolished morphine CPP
same,expression of morphine CPP,"[1]; JZL-184 two hours prior to the Day 6 morphine preference test, in the absence of morphine",does not alter the expression of morphine CPP
same,expression of morphine CPP,"[1]; JZL-184 two hours prior to the Day 6 morphine preference test, in the absence of morphine, listed as JLZ-184",had no effect on morphine reward
same,morphine-induced analgesia,"[2]; JZL-184 10 mg/kg i.p. two hours before morphine 0.1-10 mg/kg cumulative, tested 30 minutes after each dose",did not alter the analgesic effects of morphine; also recorded: does not affect morphine-induced analgesia
same,development of tolerance to morphine's analgesic effects,"[3]; JZL-184 10 mg/kg i.p. morning and afternoon, two hours prior to morphine 10 mg/kg, four consecutive days, compared to vehicle",delayed morphine-induced tolerance; also recorded: delays the development of tolerance to morphine's analgesic effects
same,acquisition of cocaine CPP (cocaine reward),[4],did not have any effect on cocaine reward; also recorded: does not alter the acquisition of cocaine CPP
same,higher nucleus accumbens activity when approaching the morphine-paired chamber,[5]; onset of approach (FIG. 7D),abolished
same,increase in nucleus accumbens activity prior to entry into the morphine-paired chamber vs saline-paired chamber,[5]; signal around zone entry (FIG. 7C),absent
same,"selectivity for MAGL over other brain serine hydrolases, including FAAH",[6],highly selective for MAGL over other brain serine hydrolases
